According to ChEMBL document CHEMBL1201862, “PubChem BioAssay data set” (2004):
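All cell lines were grown in 96-well plates and treated with compound for 48 hours. At the GI50, growth is halved.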 The source made the active and inactive calls. No stated cut-off is given here; in the data, active = GI50 up to about 1.1 µM and inactive = higher.

How the values were obtained:
Test in all cases: NCI tumour cell line growth inhibition, 48 h
RXF 393 = system: RXF 393
OVCAR-5 = system: OVCAR-5
PC-3 = system: PC-3
IGROV-1 = system: IGROV-1
T47D = system: T47D
SNB-75 = system: SNB-75
UACC-257 = system: UACC-257
RPMI-8226 = system: RPMI-8226
CCRF-CEM = system: CCRF-CEM
CAKI-1 = system: CAKI-1
HL-60 = system: HL-60
TK-10 = system: TK-10
OVCAR-8 = system: OVCAR-8
NCI-H460 = system: NCI-H460
U-251 = system: U-251
MDA-MB-231 = system: MDA-MB-231
M19-MEL = system: M19-MEL
SNB-78 = system: SNB-78
DMS-114 = system: DMS-114
LXFL 529 = system: LXFL 529

Measured: GI50

CC(O)=C1C(=O)CCC1=O
inactive: RXF 393 > 100 µM | OVCAR-5 > 100 µM | PC-3 > 100 µM | IGROV-1 > 100 µM | T47D > 100 µM | SNB-75 > 100 µM | UACC-257 > 100 µM | RPMI-8226 > 100 µM | CCRF-CEM > 100 µM | CAKI-1 > 100 µM | HL-60 > 100 µM | TK-10 > 100 µM | OVCAR-8 > 100 µM | NCI-H460 > 100 µM | U-251 > 100 µM

O=C1N(Cc2ccccc2)C2CSCC2N1Cc1ccccc1 (stereo not given)
inactive: RXF 393 20.6 µM | OVCAR-5 15.9 µM | PC-3 29.6 µM | IGROV-1 24.8 µM | T47D 27.2 µM | SNB-75 41.9 µM | UACC-257 24.8 µM | RPMI-8226 23.5 µM | CCRF-CEM 51.2 µM | MDA-MB-231 12.1 µM | CAKI-1 30.8 µM | TK-10 29.6 µM | OVCAR-8 33.3 µM | NCI-H460 18.3 µM | U-251 35.3 µM

Cc1cc(C)n(-c2nsc3ccccc23)n1
inactive: RXF 393 > 100 µM | M19-MEL > 100 µM | SNB-78 > 100 µM | OVCAR-5 > 100 µM | IGROV-1 > 100 µM | SNB-75 26.9 µM | DMS-114 > 100 µM | UACC-257 > 100 µM | RPMI-8226 > 100 µM | CCRF-CEM > 100 µM | HL-60 > 100 µM | TK-10 > 100 µM | OVCAR-8 > 100 µM | LXFL 529 > 100 µM | NCI-H460 > 100 µM | U-251 > 100 µM

O=C(NC(=O)c1cn(CCN2CCNCC2)c(=O)[nH]c1=O)OCc1ccccc1
inactive: M19-MEL > 100 µM | SNB-78 > 100 µM | OVCAR-5 > 100 µM | IGROV-1 > 10 µM | SNB-75 68.9 µM | DMS-114 63.5 µM | RPMI-8226 > 100 µM | CCRF-CEM > 100 µM | CAKI-1 > 100 µM | HL-60 > 100 µM | OVCAR-8 > 100 µM | LXFL 529 > 100 µM | NCI-H460 > 100 µM | U-251 > 100 µM

CCOC(=O)C(NC(=O)CC)(Nc1ccccc1F)C(F)(F)F (stereo not given)
inactive: RXF 393 > 100 µM | OVCAR-5 58.1 µM | PC-3 > 100 µM | IGROV-1 > 100 µM | T47D 38.4 µM | SNB-75 > 100 µM | UACC-257 > 100 µM | RPMI-8226 > 100 µM | MDA-MB-231 > 100 µM | CAKI-1 > 100 µM | HL-60 > 100 µM | TK-10 > 100 µM | OVCAR-8 > 100 µM | NCI-H460 > 100 µM | U-251 > 100 µM
